Source: US8575186B2, “Epiminocycloalkyl[b] indole derivatives as serotonin sub-type 6 (5-HT6) modulators and uses thereof” (Albany Molecular Research, Inc., priority 2009, dated 2013)
Where a name gives a salt, the structure may show the parent alone.

target: human 5-HT6 receptor (Homo sapiens (Human), UniProt P50406); assay: radioligand binding assay (SPA format), [N-methyl-3H]-LSD; details: read-out: human 5HT6 Ki; human 5-HT6 receptor membranes, 10 nM [3H]-LSD
Sequence (P50406 whole entry): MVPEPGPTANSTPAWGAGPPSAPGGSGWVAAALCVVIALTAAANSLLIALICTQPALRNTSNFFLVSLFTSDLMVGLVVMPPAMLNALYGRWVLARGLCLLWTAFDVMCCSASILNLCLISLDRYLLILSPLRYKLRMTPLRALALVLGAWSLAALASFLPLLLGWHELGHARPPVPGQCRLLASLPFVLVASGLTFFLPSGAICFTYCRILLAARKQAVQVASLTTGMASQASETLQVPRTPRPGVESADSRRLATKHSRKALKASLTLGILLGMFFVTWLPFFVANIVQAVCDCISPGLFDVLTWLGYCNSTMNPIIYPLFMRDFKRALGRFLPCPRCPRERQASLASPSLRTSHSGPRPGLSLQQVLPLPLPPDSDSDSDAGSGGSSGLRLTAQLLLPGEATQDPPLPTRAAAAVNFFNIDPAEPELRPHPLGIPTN

| SMILES | Ki |
| --- | --- |
| Cn1c2c(c3cc(S(=O)(=O)c4ccc(CN)cc4)ccc31)C1CCC(C2)N1 (stereo not shown) [Example 33, 2-(4-Aminomethylphenyl)sulfonyl-5-methyl-5,6,7,8,9,10-hexahydro-7,10-epiminocyclohepta[b]indole dihydrochloride] | 15 nM |
| CN(C)Cc1ccc(S(=O)(=O)c2ccc3c(c2)c2c(n3C)CC3CCC2N3)cc1 (stereo not shown) [Example 34, 2-[4-(N,N-Dimethylaminomethyl)phenyl]sulfonyl-5-methyl-5,6,7,8,9,10-hexahydro-7,10-epiminocyclohepta[b]indole dihydrochloride] | 4.8 nM |
| Cn1c2c(c3cc(S(=O)(=O)n4ccc5c(F)cccc54)ccc31)C1CCC(C2)N1 (stereo not shown) [Example 64, 2-[1-(4-Fluoro)-indole]sulfonyl-5-methyl-5,6,7,8,9,10-hexahydro-7,10-epiminocyclohepta[b]indole hydrochloride] | 5.6 nM |
| CN1C2CCC1c1c(n(C)c3ccc(S(=O)(=O)c4ccccc4)cc13)C2 (stereo not shown) [Example 69, 2-Phenylsulfonyl-5-methyl-5,6,7,8,9,10-hexahydro-7,10-N-methyl-epiminocyclohepta[b]indole hydrochloride] | 7.8 nM |
| CCc1cc(S(=O)(=O)c2ccccc2)cc2c3c(n(C)c12)CC1CCC3N1 (stereo not shown) [Example 80, 2-Phenylsulfonyl-4-ethyl-5-methyl-5,6,7,8,9,10-hexahydro-7,10-epiminocyclohepta[b]indole hydrochloride] | 17 nM |
| Cn1c2c(c3cc(S(=O)(=O)c4ccccc4)ccc31)C1CCCC(C2)N1 (stereo not shown) [Example 92, 2-(Phenylsulfonyl)-5-methyl-6,7,8,9,10,11-hexahydro-5H-7,11-epiminocycloocta[b]indole hydrochloride] | 150 nM |
| Cn1c2c(c3cc(S(=O)(=O)c4ccc5cc[nH]c5c4)ccc31)C1CCC(C2)N1 (stereo not shown) [Example 95] | 5.8 nM |
| Cn1c2c(c3cc(S(=O)(=O)c4cc(F)ccn4)ccc31)C1CCC(C2)N1 (stereo not shown) [Example 96] | 341 nM |
| Cn1c2c(c3cc(S(=O)(=O)c4cc(Cl)ccn4)ccc31)C1CCC(C2)N1 (stereo not shown) [Example 97] | 104 nM |
| Cn1c2c(c3cc(S(=O)(=O)c4cccc5cc[nH]c45)ccc31)C1CCC(C2)N1 (stereo not shown) [Example 99] | 4.5 nM |
| Cn1c2c(c3cc(S(=O)(=O)c4cnc5[nH]ccc5c4)ccc31)C1CCC(C2)N1 (stereo not shown) [Example 101] | 2.9 nM |
| Cn1c2c(c3cc(S(=O)(=O)c4cn(Cc5ccccc5)c5ccccc45)ccc31)C1CCC(C2)N1 (stereo not shown) [Example 102] | 0.71 nM |
| Cn1c2c(c3cc(S(=O)(=O)c4cn(-c5ccccc5)c5ccccc45)ccc31)C1CCC(C2)N1 (stereo not shown) [Example 103] | 9.3 nM |
| Cn1c2c(c3cc(S(=O)(=O)c4ccc5sccc5c4)ccc31)C1CCC(C2)N1 (stereo not shown) [Example 104] | 5 nM |
| Cn1c2c(c3cc(S(=O)(=O)c4ccccc4O)ccc31)C1CCC(C2)N1 (stereo not shown) [Example 105] | 100 nM |
| Cn1c2c(c3cc(S(=O)(=O)n4ccc5ncccc54)ccc31)C1CCC(C2)N1 (stereo not shown) [Example 107] | 78 nM |
| Cn1c2c(c3cc(S(=O)(=O)c4cccc5ncccc45)ccc31)C1CCC(C2)N1 (stereo not shown) [Example 110] | 148 nM |
| Cn1c2c(c3cc(S(=O)(=O)c4cccc5cnccc45)ccc31)C1CCC(C2)N1 (stereo not shown) [Example 111] | 22 nM |
| Cn1c2c(c3cc(S(=O)(=O)c4ccccc4F)ccc31)C1CCC(C2)N1 (stereo not shown) [Example 112] | 4.6 nM |
| Cn1c2c(c3cc(S(=O)(=O)c4cccc5cccnc45)ccc31)C1CCC(C2)N1 (stereo not shown) [Example 113] | 23 nM |
| Cn1c2c(c3cc(S(=O)(=O)c4ccccc4Cl)ccc31)C1CCC(C2)N1 (stereo not shown) [Example 115] | 4.8 nM |
| Cn1c2c(c3cc(S(=O)(=O)c4ccc5occc5c4)ccc31)C1CCC(C2)N1 (stereo not shown) [Example 116] | 20 nM |
| CC(C)n1ccc2cc(S(=O)(=O)c3ccc4c(c3)c3c(n4C)CC4CCC3N4)ccc21 (stereo not shown) [Example 117] | 4.4 nM |

| SMILES | Ki |
| --- | --- |
| Cn1c2c(c3cc(S(=O)(=O)c4ccc5c(ccn5CCO)c4)ccc31)C1CCC(C2)N1 (stereo not shown) [Example 119] | 228 nM |
| COCCn1ccc2cc(S(=O)(=O)c3ccc4c(c3)c3c(n4C)CC4CCC3N4)ccc21 (stereo not shown) [Example 120] | 64 nM |
| Cn1c2c(c3cc(S(=O)(=O)c4cccc(OCc5ccccc5)c4)ccc31)C1CCC(C2)N1 (stereo not shown) [Example 121] | 1.9 nM |
| Cn1c2c(c3cc(S(=O)(=O)c4cc(C(F)(F)F)c5[nH]ccc5c4)ccc31)C1CCC(C2)N1 (stereo not shown) [Example 123] | 0.47 nM |
| Cn1c2c(c3cc(S(=O)(=O)c4cc(F)c5[nH]ccc5c4)ccc31)C1CCC(C2)N1 (stereo not shown) [Example 124] | 0.33 nM |
| Cn1c2c(c3cc(S(=O)(=O)c4cccc(-c5cc[nH]n5)c4)ccc31)C1CCC(C2)N1 (stereo not shown) [Example 125] | 244 nM |
| Cc1cc2ccccc2n1S(=O)(=O)c1ccc2c(c1)c1c(n2C)CC2CCC1N2 (stereo not shown) [Example 126] | 7.2 nM |
| Cn1c2c(c3cc(S(=O)(=O)n4ccc5ccc(C#N)cc54)ccc31)C1CCC(C2)N1 (stereo not shown) [Example 127] | 1.5 nM |
| Cn1c2c(c3cc(S(=O)(=O)n4cc(F)c5ccccc54)ccc31)C1CCC(C2)N1 (stereo not shown) [Example 129] | 2.7 nM |
| Cn1c2c(c3cc(S(=O)(=O)c4cccc5ccncc45)ccc31)C1CCC(C2)N1 (stereo not shown) [Example 131] | 13 nM |
| Cn1c2c(c3cc(S(=O)(=O)c4ccnc5ccccc45)ccc31)C1CCC(C2)N1 (stereo not shown) [Example 132] | 39 nM |
| Cn1c2c(c3cc(S(=O)(=O)c4cccc(OCc5ccncc5)c4)ccc31)C1CCC(C2)N1 (stereo not shown) [Example 133] | 11 nM |
| CN1C2CCC1c1c(n(C)c3ccc(S(=O)(=O)c4ccc5[nH]ccc5c4)cc13)C2 (stereo not shown) [Example 134] | 0.26 nM |
| CC(C)N1C2CCC1c1c(n(C)c3ccc(S(=O)(=O)c4ccc5[nH]ccc5c4)cc13)C2 (stereo not shown) [Example 135] | 3.2 nM |
| COCCN1C2CCC1c1c(n(C)c3ccc(S(=O)(=O)c4ccc5[nH]ccc5c4)cc13)C2 (stereo not shown) [Example 136] | 1.4 nM |
| Cn1c2c(c3cc(S(=O)(=O)c4ccc5[nH]ccc5c4)ccc31)C1CCC(C2)N1Cc1ccccc1 (stereo not shown) [Example 137] | 1.2 nM |
| Cn1c2c(c3cc(S(=O)(=O)c4ccc5[nH]ccc5c4)ccc31)C1CCC(C2)N1CCO (stereo not shown) [Example 138] | 1.2 nM |
| Cn1c2c(c3cc(S(=O)(=O)c4csc5ccccc45)cc(F)c31)C1CCC(C2)N1 (stereo not shown) [Example 139] | 0.47 nM |
| Cc1cc(S(=O)(=O)c2cn(C)c3ccccc23)cc2c3c(n(C)c12)CC1CCC3N1 (stereo not shown) [Example 140] | 0.56 nM |
| Cc1cc(S(=O)(=O)c2csc3ccccc23)cc2c3c(n(C)c12)CC1CCC3N1 (stereo not shown) [Example 141] | 0.29 nM |
| Cn1c2c(c3cc(S(=O)(=O)c4ccccc4)cc(C#N)c31)C1CCC(C2)N1 (stereo not shown) [Example 142] | 115 nM |
| COc1cc(S(=O)(=O)c2ccc3[nH]ccc3c2)cc2c3c(n(C)c12)CC1CCC3N1 (stereo not shown) [Example 145] | 0.31 nM |
| COc1cc(S(=O)(=O)c2cccc(OCc3ccccc3)c2)cc2c3c(n(C)c12)CC1CCC3N1 (stereo not shown) [Example 147] | 1.4 nM |

| SMILES | Ki |
| --- | --- |
| COc1cc(S(=O)(=O)n2ncc3ccccc32)cc2c3c(n(C)c12)CC1CCC3N1 (stereo not shown) [Example 148] | 1.3 nM |
| COc1cc(S(=O)(=O)n2cc(C#N)c3ccccc32)cc2c3c(n(C)c12)CC1CCC3N1 (stereo not shown) [Example 149] | 1.2 nM |
| Cn1c2c(c3cc(S(=O)(=O)c4ccccc4)cc(OC(F)(F)F)c31)C1CCC(C2)N1 (stereo not shown) [Example 150] | 70 nM |
| CN(C)C(=O)COc1cc(S(=O)(=O)c2ccccc2)cc2c3c(n(C)c12)CC1CCC3N1 (stereo not shown) [Example 153] | 581 nM |
| Cn1c2c(c3cc(S(=O)(=O)c4ccccc4)cc(OCc4ccccn4)c31)C1CCC(C2)N1 (stereo not shown) [Example 154] | 80 nM |
| Cn1c2c(c3cc(S(=O)(=O)c4ccccc4)cc(OCc4cccnc4)c31)C1CCC(C2)N1 (stereo not shown) [Example 155] | 129 nM |
| Cn1c2c(c3cc(S(=O)(=O)c4ccccc4)cc(N4CCCC4)c31)C1CCC(C2)N1 (stereo not shown) [Example 156] | 52 nM |
| Cn1c2c(c3cc(S(=O)(=O)c4cccc(Cl)c4)ccc31)C1CCC(C2)N1 (stereo not shown) [Example 157] | 2.7 nM |
| Cn1cc(S(=O)(=O)c2ccc3c(c2)c2c(n3C)CC3CCC2N3)c2ccccc21 (stereo not shown) [Example 165] | 0.81 nM |
| Cn1cc(S(=O)(=O)c2ccc3c(c2)c2c(n3C)CC3CCC2N3)c2ccccc21 (stereo not shown) [Example 166] | 0.41 nM |
| Cn1c2c(c3cc(S(=O)(=O)c4ccc5sccc5c4)ccc31)C1CCC(C2)N1 (stereo not shown) [Example 167] | 7.5 nM |
| Cn1c2c(c3cc(S(=O)(=O)c4ccc5sccc5c4)ccc31)C1CCC(C2)N1 (stereo not shown) [Example 168] | 3.3 nM |
| Cn1c2c(c3cc(S(=O)(=O)c4cccc5cccnc45)ccc31)C1CCC(C2)N1 (stereo not shown) [Example 169] | 27 nM |
| Cn1c2c(c3cc(S(=O)(=O)c4cccc5cccnc45)ccc31)C1CCC(C2)N1 (stereo not shown) [Example 170] | 17 nM |
| Cn1c2c(c3cc(S(=O)(=O)c4ccc(C#N)cc4)ccc31)C1CCC(C2)N1 (stereo not shown) [Example 177] | 747 nM |
| Cn1c2c(c3cc(S(=O)(=O)c4ccc(C#N)cc4)ccc31)C1CCC(C2)N1 (stereo not shown) [Example 178] | 454 nM |
| CC(C)n1c2c(c3cc(S(=O)(=O)c4ccccc4)ccc31)C1CCC(C2)N1 (stereo not shown) [Example 181] | 284 nM |
| CC(C)n1c2c(c3cc(S(=O)(=O)c4ccccc4)ccc31)C1CCC(C2)N1 (stereo not shown) [Example 182] | 365 nM |
| CN1C2CCC1c1c(n(C)c3ccc(S(=O)(=O)c4ccc5[nH]ccc5c4)cc13)C2 (stereo not shown) [Example 183] | 0.42 nM |
| CN1C2CCC1c1c(n(C)c3ccc(S(=O)(=O)c4ccc5[nH]ccc5c4)cc13)C2 (stereo not shown) [Example 184] | 0.35 nM |
| CCN1C2CCC1c1c(n(C)c3ccc(S(=O)(=O)c4ccc5[nH]ccc5c4)cc13)C2 (stereo not shown) [Example 185] | 1.5 nM |
| CCN1C2CCC1c1c(n(C)c3ccc(S(=O)(=O)c4ccc5[nH]ccc5c4)cc13)C2 (stereo not shown) [Example 186] | 0.77 nM |
| Cn1c2c(c3cc(S(=O)(=O)n4ccc5cc(Cl)ccc54)ccc31)C1CCC(C2)N1 (stereo not shown) [Example 195] | 4.6 nM |

same assay, conditions: read-out: human 5HT6 Ki; human 5-HT6 receptor membranes, 10 nM [3H]-LSD; hydrochloride

| SMILES | Ki |
| --- | --- |
| Cn1c2c(c3cc(S(=O)(=O)c4cccc(Cl)c4)ccc31)C1CCC(C2)N1 (stereo not shown) [Example 36, 2-(3-Chlorophenyl)sulfonyl-5-methyl-5,6,7,8,9,10-hexahydro-7,10-epiminocyclohepta[b]indole hydrochloride] | 1.8 nM |
